Measurements reported in ChEMBL document CHEMBL1126337, “Cholecystokinin analogues: The ergopeptine alkaloids as models of the active conformation of CCK” (Bioorg Med Chem Lett, 1992).
Peptide text beside a SMILES is read from it. * marks the point of attachment. NHPhenethyl = c1ccc(CCN*)cc1; Boc = CC(C)(C)OC(=O)*

Columns and labels:
[1] = target: T1, Cholecystokinin receptor type A (Mus musculus, UniProt O08786); test: Concentration of compound required to inhibit binding of [125I]J-BH-CCK-8 radioligand to CCKA in mouse pancreatic membranes; assay type: cell membranes
T1 sequence (O08786 whole entry): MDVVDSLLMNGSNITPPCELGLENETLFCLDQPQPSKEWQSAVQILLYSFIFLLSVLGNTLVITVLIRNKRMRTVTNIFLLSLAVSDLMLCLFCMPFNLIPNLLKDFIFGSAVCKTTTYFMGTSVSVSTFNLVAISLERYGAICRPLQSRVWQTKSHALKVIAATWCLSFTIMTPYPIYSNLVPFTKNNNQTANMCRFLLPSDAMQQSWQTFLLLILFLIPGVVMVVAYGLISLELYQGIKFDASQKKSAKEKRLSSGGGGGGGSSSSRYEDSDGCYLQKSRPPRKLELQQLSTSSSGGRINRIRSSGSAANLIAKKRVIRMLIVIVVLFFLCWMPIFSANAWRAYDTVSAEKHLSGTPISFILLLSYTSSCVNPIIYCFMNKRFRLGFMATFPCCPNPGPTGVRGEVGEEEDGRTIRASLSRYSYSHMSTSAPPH

[2] = target: T2, Gastrin/cholecystokinin type B receptor (Mus musculus, UniProt P56481); test: Concentration of compound required to inhibit binding of [125I]J-BH-CCK-8 radioligand to CCKB in mouse fore brain membranes; assay type: cell membranes, Membrane
T2 sequence (P56481 whole entry): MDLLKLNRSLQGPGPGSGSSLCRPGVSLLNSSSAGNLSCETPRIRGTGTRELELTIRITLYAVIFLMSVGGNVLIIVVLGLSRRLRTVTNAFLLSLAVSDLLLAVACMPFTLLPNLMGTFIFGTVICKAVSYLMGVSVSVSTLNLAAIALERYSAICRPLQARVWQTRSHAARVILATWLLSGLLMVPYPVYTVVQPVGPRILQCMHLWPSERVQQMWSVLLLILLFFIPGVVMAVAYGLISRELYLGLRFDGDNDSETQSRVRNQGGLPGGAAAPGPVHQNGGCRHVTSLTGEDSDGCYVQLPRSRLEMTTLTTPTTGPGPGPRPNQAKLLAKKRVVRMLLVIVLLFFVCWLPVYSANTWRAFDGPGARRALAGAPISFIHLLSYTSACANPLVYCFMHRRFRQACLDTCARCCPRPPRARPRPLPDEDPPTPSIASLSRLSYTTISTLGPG

## CN1C[C@H](C(=O)N[C@]2(C)O[C@@]3(O)[C@@H]4CCCN4C(=O)[C@H](Cc4ccccc4)N3C2=O)C[C@@H]2c3cccc4[nH]cc(c34)C[C@H]21 [DIHYDROERGOTAMINE]
[1]
  IC50: > 80 µM
[2]
  IC50: 23 µM

## CC(C)C[C@H]1C(=O)N2CCC[C@H]2[C@]2(O)O[C@](NC(=O)[C@@H]3C=C4c5cccc6[nH]cc(c56)C[C@H]4N(C)C3)(C(C)C)C(=O)N12 [ERGOCRYPTINE]
[1]
  IC50: > 80 µM
[2]
  IC50: > 80 µM

## CC(C)C[C@H](NC(=O)[C@H](Cc1c[nH]c2ccccc12)NC(=O)OC(C)(C)C)C(=O)N[C@@H](CC(=O)O)C(=O)NCCc1ccccc1 (Boc-Trp-Leu-Asp-NHPhenethyl)
[1]
  IC50: 3.5 µM
[2]
  IC50: 0.35 µM

## C[C@H](NC(=O)C1C=C2c3cccc4[nH]cc(c34)CC2N(C)C1)C(=O)NCCc1ccccc1 (stereo not given in full)
[1]
  IC50: 12 µM
[2]
  IC50: > 80 µM

## CN1C[C@H](C(=O)N[C@]2(C)O[C@@]3(O)[C@@H]4CCCN4C(=O)[C@H](Cc4ccccc4)N3C2=O)C=C2c3cccc4[nH]cc(c34)C[C@H]21 [ERGOTAMINE]
[1]
  IC50: 34 µM
[2]
  IC50: 17 µM
